pIC50: −log10 of the molar value.
Legend:
Type in all cases: biochemical, influenza A(H3N2) virus
[1] = target: A/Victoria/361/2011 NA with Q136K (K136, T148, R150, T439) (Influenza A virus, UniProt G9LQ08, H150R/Q136K)
[2] = target: A/Victoria/361/2011 NA with T439R (Q136, T148, R150, R439) (Influenza A virus, UniProt G9LQ08, H150R/T439R)
[3] = target: A/Victoria/361/2011 NA with R150H (Q136, T148, H150, T439) (Influenza A virus, UniProt G9LQ08)
[4] = target: A/Victoria/361/2011 NA with T148I (Q136, I148, R150, T439) (Influenza A virus, UniProt G9LQ08, H150R/T148I)

For `CCC(CC)[C@H](NC(C)=O)[C@@H]1[C@H](O)[C@@H](C(=O)O)C[C@H]1N=C(N)N` [Peramivir, peramivir], the pIC50 [1] was 9.25, the IC50 fold-change [1] was 0.56 ± 0.09 (8) fold and the pIC50 [2] was 9.62. The IC50 fold-change [2] was 0.24 ± 0.04 (3) fold, the pIC50 [3] was 10.10 and the IC50 fold-change [3] was 0.08 ± 0.01 (1) fold. For the same compound, the pIC50 [4] was 10.05 and the IC50 fold-change [4] was 0.09 ± 0.01 (1) fold.

From publication PMC10549826 (Antiviral research, 2023)
